Measurements as given in US20040224953A1, “Fused bicyclic-substituted amines as histamine-3 receptor ligands” (priority 2003, published 2004).

## C[C@@H]1CCCN1CCc1nc2cc(-c3ccc(C#N)cc3)ccc2o1 [Example 24E, 4-{2-[2-(2-(R)-methyl-pyrrolidin-1-yl)-ethyl]-benzooxazol-5-yl}-benzonitrile]
  melting point: 70 to 72 °C
